From patent publication US12398097B2, “WDR5-MYC inhibitors” (Vanderbilt University, priority 2019, dated 2025)
pKi: −log10 of the molar value.

Biological target: WDR5 (Homo sapiens, UniProt P61964)
Experiment: Competition-based fluorescence polarization anisotropy assay
Conditions: binding to WDR5; displacement of FITC-labeled small molecule probe (analogous to Example J2 or HCH-25) or peptide probe FITC-AHx-SEEEIDVVSV; pH 6.0; Ki converted from IC50
Experimental: Compounds of the present invention were assessed for their ability to bind to WDr5 using a competition-based fluorescence polarization anisotropy assay, similar to the method previously described. […] Fluorescence polarization measurements were performed in 384-well plates (Greiner Bio One) using a Cytation 3 plate reader (BioTek). Fluorescein isothiocyanate (FITC)-labeled peptide probe ([…]) was purchased from GenScript USA Inc and used without further purification. […] The assay buffer contained 200 mM phosphate, 300 mM NaCl, and 0.5 mM TCEP and 0.1% Chaps at pH 6.0. […] This was converted into a binding dissociation constant (Ki value) according to the formula: […] Data shown in the table below represents a K; determined from this method for each Example, using either a fluorescently labeled small molecule probe analogous to Example J2 or Example HCH-25, or the peptide probe described above, in the assay.

| Molecule | pKi |
| --- | --- |
| 2-Bromo-N-(5-chloro-2-hydroxy-3-nitrophenyl)-4-ethyl-5-hydroxybenzenesulfonamide [NE3] | 7.22 |
| O=C(NC1CC(O)C1)c1cc(OC(F)(F)F)cc(NS(=O)(=O)c2cc(Br)ccc2O)c1O (mixture of isomers) [HCH-3, 3-((5-Bromo-2-hydroxyphenyl)sulfonamido)-2-hydroxy-N-(3-hydroxycyclobutyl)-5-(trifluoromethoxy)benzamide] | 6.29 |
| C[C@H](NC(=O)c1cc(OC(F)(F)F)cc(NS(=O)(=O)c2cc(Br)ccc2O)c1O)C(N)=O (stereo in doubt) [HCH-48, N-(1-Amino-1-oxopropan-2-yl)-3-((5-bromo-2-hydroxyphenyl)sulfonamido)-2-hydroxy-5-(trifluoromethoxy)benzamide] | 6.60 |
| O=C(O)c1cc(Cl)cc(NS(=O)(=O)c2cc(Br)ccc2O)c1O [Example J1, 3-((5-Bromo-2-hydroxyphenyl)sulfonamido)-5-chloro-2-hydroxybenzoic acid] | 7.05 |
| COc1ccc(Br)cc1S(=O)(=O)Nc1cc(Cl)cc(C(=O)O)c1O [Example J2, 3-((5-Bromo-2-methoxyphenyl)sulfonamido)-5-chloro-2-hydroxybenzoic acid] | 6.74 |
| O=C(O)c1cc(Cl)cc(NS(=O)(=O)c2cc(Br)cc(Cl)c2O)c1O [Example J4, 3-((5-Bromo-3-chloro-2-hydroxyphenyl)sulfonamido)-5-chloro-2-hydroxybenzoic acid] | 7.22 |
| O=C(O)c1cc(Cl)cc(NS(=O)(=O)c2cc(Br)cc(F)c2O)c1O [Example J5, 3-((5-Bromo-3-fluoro-2-hydroxyphenyl)sulfonamido)-5-chloro-2-hydroxybenzoic acid] | 6.47 |
| O=C(O)c1cc(Cl)cc(NS(=O)(=O)c2cc(Br)cc([N+](=O)[O-])c2O)c1O [Example J6, 3-((5-Bromo-2-hydroxy-3-nitrophenyl)sulfonamido)-5-chloro-2-hydroxybenzoic acid] | 6.96 |
| COc1cc(Cl)c(Br)cc1S(=O)(=O)Nc1cc(Cl)cc(C(=O)O)c1O [Example J7, 3-((5-Bromo-4-chloro-2-methoxyphenyl)sulfonamido)-5-chloro-2-hydroxybenzoic acid] | 5.43 |
| COc1cc(F)c(Br)cc1S(=O)(=O)Nc1cc(Cl)cc(C(=O)O)c1O [Example J8, 3-((5-Bromo-4-fluoro-2-methoxyphenyl)sulfonamido)-5-chloro-2-hydroxybenzoic acid] | 5.56 |
| O=C(O)c1cc(Cl)cc(NS(=O)(=O)c2cc(Br)c(F)cc2O)c1O [Example J9, 3-((5-Bromo-4-fluoro-2-hydroxyphenyl)sulfonamido)-5-chloro-2-hydroxybenzoic acid] | 5.57 |
| O=C(O)c1cc(Cl)cc(NS(=O)(=O)c2cc(Cl)c(F)cc2O)c1O [Example J10, 5-Chloro-3-((5-chloro-4-fluoro-2-hydroxyphenyl)sulfonamido)-2-hydroxybenzoic acid] | 4.66 |
| O=C(O)c1cc(Cl)cc(NS(=O)(=O)c2cc(Cl)c(Cl)cc2O)c1O [Example J11, 5-Chloro-3-((4,5-dichloro-2-hydroxyphenyl)sulfonamido)-2-hydroxybenzoic acid] | 5.60 |
| CCc1cc(O)c(S(=O)(=O)Nc2cc(Cl)cc(C(=O)O)c2O)cc1Cl [Example J12, 5-Chloro-3-((5-chloro-4-ethyl-2-hydroxyphenyl)sulfonamido)-2-hydroxybenzoic acid] | 4.95 |
| O=C(O)c1cc(Cl)cc(NS(=O)(=O)c2cc(Br)cc3cccnc23)c1O [Example J13, 3-((6-Bromoquinoline)-8-sulfonamido)-5-chloro-2-hydroxybenzoic acid] | 6.11 |
| CNC(=O)c1cc(Cl)cc(NS(=O)(=O)c2cc(Br)ccc2O)c1O [Example J14, 3-((5-Bromo-2-hydroxyphenyl)sulfonamido)-5-chloro-2-hydroxy-N-methylbenzamide] | 6.43 |
| COCCNC(=O)c1cc(Cl)cc(NS(=O)(=O)c2cc(Br)ccc2O)c1O [Example J15, 3-((5-Bromo-2-hydroxyphenyl)sulfonamido)-5-chloro-2-hydroxy-N-(2-methoxyethyl)benzamide] | 6.21 |
| O=C(NCCO)c1cc(Cl)cc(NS(=O)(=O)c2cc(Br)ccc2O)c1O [Example J16, 3-((5-Bromo-2-hydroxyphenyl)sulfonamido)-5-chloro-2-hydroxy-N-(2-hydroxyethyl)benzamide] | 6.27 |

| Molecule | pKi |
| --- | --- |
| O=C(NCCCO)c1cc(Cl)cc(NS(=O)(=O)c2cc(Br)ccc2O)c1O [Example J17, 3-((5-Bromo-2-hydroxyphenyl)sulfonamido)-5-chloro-2-hydroxy-N-(3-hydroxypropyl)benzamide] | 5.57 |
| O=C(NC1CCOC1)c1cc(Cl)cc(NS(=O)(=O)c2cc(Br)ccc2O)c1O (stereo not drawn) [Example J18, 3-((5-Bromo-2-hydroxyphenyl)sulfonamido)-5-chloro-2-hydroxy-N-(tetrahydrofuran-3-yl)benzamide] | 5.87 |
| O=C(NCCN1CCOCC1)c1cc(Cl)cc(NS(=O)(=O)c2cc(Br)ccc2O)c1O [Example J19, 3-((5-Bromo-2-hydroxyphenyl)sulfonamido)-5-chloro-2-hydroxy-N-(2-morpholinoethyl)benzamide] | 5.93 |
| O=C(NC1COC1)c1cc(Cl)cc(NS(=O)(=O)c2cc(Br)ccc2O)c1O [Example J21, 3-((5-Bromo-2-hydroxyphenyl)sulfonamido)-5-chloro-2-hydroxy-N-(oxetan-3-yl)benzamide] | 6.24 |
| O=C(N[C@H]1CCOC1)c1cc(Cl)cc(NS(=O)(=O)c2cc(Br)ccc2O)c1O [Example J22, (S)-3-((5-Bromo-2-hydroxyphenyl)sulfonamido)-5-chloro-2-hydroxy-N-(tetrahydrofuran-3-yl)benzamide] | 6.33 |
| O=C(NCC1CCOC1)c1cc(Cl)cc(NS(=O)(=O)c2cc(Br)ccc2O)c1O (stereo not drawn) [Example J23, 3-((5-Bromo-2-hydroxyphenyl)sulfonamido)-5-chloro-2-hydroxy-N-((tetrahydrofuran-3-yl)methyl)benzamide] | 6.31 |
| COC1CCN(C(=O)c2cc(Cl)cc(NS(=O)(=O)c3cc(Br)ccc3O)c2O)C1 (stereo not drawn) [Example J24, 5-Bromo-N-(5-chloro-2-hydroxy-3-(3-methoxypyrrolidine-1-carbonyl)phenyl)-2-hydroxybenzenesulfonamide] | 5.26 |
| O=C(NCC1CCCO1)c1cc(Cl)cc(NS(=O)(=O)c2cc(Br)ccc2O)c1O (stereo not drawn) [Example J25, 3-((5-Bromo-2-hydroxyphenyl)sulfonamido)-5-chloro-2-hydroxy-N-((tetrahydrofuran-2-yl)methyl)benzamide] | 6.64 |
| O=C(NC[C@H]1CCCO1)c1cc(Cl)cc(NS(=O)(=O)c2cc(Br)ccc2O)c1O [Example J26, (R)-3-((5-Bromo-2-hydroxyphenyl)sulfonamido)-5-chloro-2-hydroxy-N-((tetrahydrofuran-2-yl)methyl)benzamide] | 6.13 |
| O=C(NC[C@@H]1CCCO1)c1cc(Cl)cc(NS(=O)(=O)c2cc(Br)ccc2O)c1O [Example J27, (S)-3-((5-Bromo-2-hydroxyphenyl)sulfonamido)-5-chloro-2-hydroxy-N-((tetrahydrofuran-2-yl)methyl)benzamide] | 6.11 |
| COC[C@H]1CCCN1C(=O)c1cc(Cl)cc(NS(=O)(=O)c2cc(Br)ccc2O)c1O [Example J28, (R)-5-Bromo-N-(5-chloro-2-hydroxy-3-(2-(methoxymethyl)pyrrolidine-1-carbonyl)phenyl)-2-hydroxybenzenesulfonamide] | 5.08 |
| COC[C@@H]1CCCN1C(=O)c1cc(Cl)cc(NS(=O)(=O)c2cc(Br)ccc2O)c1O [Example J29, (S)-5-Bromo-N-(5-chloro-2-hydroxy-3-(2-(methoxymethyl)pyrrolidine-1-carbonyl)phenyl)-2-hydroxybenzenesulfonamide] | 5.40 |
| O=C(c1cc(Cl)cc(NS(=O)(=O)c2cc(Br)ccc2O)c1O)N1CCOCC1 [Example J30, 5-Bromo-N-(5-chloro-2-hydroxy-3-(morpholine-4-carbonyl)phenyl)-2-hydroxybenzenesulfonamide] | 5.63 |
| O=C(NCc1ccccn1)c1cc(Cl)cc(NS(=O)(=O)c2cc(Br)ccc2O)c1O [Example J31, 3-((5-Bromo-2-hydroxyphenyl)sulfonamido)-5-chloro-2-hydroxy-N-(pyridin-2-ylmethyl)benzamide] | 6.10 |
| O=C(NCc1ccco1)c1cc(Cl)cc(NS(=O)(=O)c2cc(Br)ccc2O)c1O [Example J34, 3-((5-Bromo-2-hydroxyphenyl)sulfonamido)-5-chloro-N-(furan-2-ylmethyl)-2-hydroxybenzamide] | 6.49 |
| O=C(NCc1ccc(=O)[nH]c1)c1cc(Cl)cc(NS(=O)(=O)c2cc(Br)ccc2O)c1O [Example J35, 3-((5-Bromo-2-hydroxyphenyl)sulfonamido)-5-chloro-2-hydroxy-N-((6-oxo-1,6-dihydropyridin-3-yl)methyl)benzamide] | 6.64 |
| O=C(NCc1cc[nH]c(=O)c1)c1cc(Cl)cc(NS(=O)(=O)c2cc(Br)ccc2O)c1O [Example J36, 3-((5-Bromo-2-hydroxyphenyl)sulfonamido)-5-chloro-2-hydroxy-N-((2-oxo-1,2-dihydropyridin-4-yl)methyl)benzamide] | 6.62 |
| CN(CC1CCCO1)C(=O)c1cc(Cl)cc(NS(=O)(=O)c2cc(Br)ccc2O)c1O (stereo not drawn) [Example J37, 3-((5-Bromo-2-hydroxyphenyl)sulfonamido)-5-chloro-2-hydroxy-N-methyl-N-((tetrahydrofuran-2-yl)methyl)benzamide] | 5.42 |
